Reference: patent publication US9694016B2 (Novartis AG, priority 2013, dated 2017)

Molecular target: b-Raf (V600E) (Homo sapiens (Human), UniProt P15056, V600E)
Conditions: read-out: b-Raf IC-50; AlphaScreen, 60 min pre-incubation, reaction 3 hours at room temperature
Excerpt: Sf9 cells co-expressing both proteins were lysed and subjected to immobilized nickel chromatography and eluted with Imidazole. A second column (StrepII binding column) was used and eluted with desthiobiotin. Protein Tags were removed using Prescission enzyme and the protein was further purified using a flowthrough step to remove tags.
Full length MEK1 with an inactivating K97R ATP binding site mutation is utilized as a RAF substrate. The MEK1 cDNA was subcloned with an N-terminal (his)6 tag into a vector for E. Coli expression. The MEK1 substrate was purified from E. Coli lysate by nickel affinity chromatography followed by anion exchange. The final MEK1 preparation was biotinylated (Pierce EZ-Link Sulfo-NHS-LC-Biotin) and concentrated.
Assay buffer: 50 mM Tris, pH 7.5, 15 mM MgCl2, 0.01% Bovine Serum Albumin (BSA), 1 mM dithiothreitol (DTT) Stop buffer: 60 mM ethylenediaminetetraacetic acid (EDTA), 0.01% Tween® 20
biotinylated Mek, kinase dead
384 well low volume assay plates (White Greiner® plates)
biotinylated Mek, Kinase dead approximately 10 nM
Pre-incubation time with compounds 60 minutes at room temperature
Reaction time 1 or 3 hours at room temperature
The plate was incubated for 60 minutes at room temperature.
The additions were carried out under dark conditions to protect the detection beads from light. A lid was placed on top of the plate and incubated for 1 hour at room temperature, then the luminescence was read on a PerkinElmer Envision instrument.

Sequence of b-Raf (V600E) (P15056 whole entry V600E): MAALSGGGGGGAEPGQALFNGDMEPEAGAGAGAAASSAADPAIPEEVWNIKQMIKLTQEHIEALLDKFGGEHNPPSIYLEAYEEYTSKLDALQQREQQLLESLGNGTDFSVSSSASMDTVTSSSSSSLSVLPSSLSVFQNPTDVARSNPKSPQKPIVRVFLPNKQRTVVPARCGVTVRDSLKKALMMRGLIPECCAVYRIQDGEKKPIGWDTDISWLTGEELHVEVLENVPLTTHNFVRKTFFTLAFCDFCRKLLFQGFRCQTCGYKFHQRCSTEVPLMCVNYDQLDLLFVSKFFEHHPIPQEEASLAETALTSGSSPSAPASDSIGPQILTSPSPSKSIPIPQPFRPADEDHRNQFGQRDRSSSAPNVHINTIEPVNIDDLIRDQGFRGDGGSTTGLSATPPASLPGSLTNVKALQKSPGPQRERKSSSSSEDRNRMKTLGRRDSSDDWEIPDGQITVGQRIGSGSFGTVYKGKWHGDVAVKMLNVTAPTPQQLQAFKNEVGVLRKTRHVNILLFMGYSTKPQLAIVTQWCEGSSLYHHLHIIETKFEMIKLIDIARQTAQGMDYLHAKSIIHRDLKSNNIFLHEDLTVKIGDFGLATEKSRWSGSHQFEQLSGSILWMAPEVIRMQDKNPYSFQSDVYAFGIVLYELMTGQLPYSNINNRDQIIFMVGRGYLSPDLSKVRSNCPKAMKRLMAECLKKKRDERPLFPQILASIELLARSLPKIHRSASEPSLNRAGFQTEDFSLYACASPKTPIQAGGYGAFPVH

Compound	IC50 [nM]
Cc1ncc(NC(=O)c2ccnc(C(F)F)c2)cc1-c1cc(NCCO)nc(N2CCOCC2)c1 [Example 1039, 2-(difluoromethyl)-N-(2′-((2-hydroxyethyl)amino)-2-methyl-6′-morpholino-[3,4′-bipyridin]-5-yl)isonicotinamide]	5.04
Cc1ncc(NC(=O)c2ccnc(C(F)(F)F)c2)cc1-c1cc(NCCO)nc(N2CCOCC2)c1 [Example 1040, N-(2′-((2-hydroxyethyl)amino)-2-methyl-6′-morpholino-[3,4′-bipyridin]-5-yl)-2-(trifluoromethyl)isonicotinamide]	4.35
Cc1ncc(NC(=O)c2ccnc(C(C)(F)F)c2)cc1-c1cc(NCCO)nc(N2CCOCC2)c1 [Example 1041, 2-(1,1-difluoroethyl)-N-(2′-((2-hydroxyethyl)amino)-2-methyl-6′-morpholino-[3,4′-bipyridin]-5-yl)isonicotinamide]	5.72
Cc1ncc(NC(=O)c2ccnc(C(C)(C)C#N)c2)cc1-c1cc(NCCO)nc(N2CCOCC2)c1 [Example 1042, 2-(2-cyanopropan-2-yl)-N-(2′-((2-hydroxyethyl)amino)-2-methyl-6′-morpholino-[3,4′-bipyridin]-5-yl)isonicotinamide]	40.6
Cc1ncc(NC(=O)c2ccnc(S(C)(=O)=O)c2)cc1-c1cc(NCCO)nc(N2CCOCC2)c1 [Example 1043, N-(2′-((2-hydroxyethyl)amino)-2-methyl-6′-morpholino-[3,4′-bipyridin]-5-yl)-2-(methylsulfonyl)isonicotinamide]	22.8
CCn1cc(C(=O)Nc2cnc(C)c(-c3cc(NCCO)nc(N4CCOCC4)c3)c2)cc(C(F)(F)F)c1=O [Example 1044, 1-ethyl-N-(2′-((2-hydroxyethyl)amino)-2-methyl-6′-morpholino-[3,4′-bipyridin]-5-yl)-6-oxo-5-(trifluoromethyl)-1,6-dihydropyridine-3-carboxamide]	30.6
CCN1CCN(c2cc(C(=O)Nc3cnc(C)c(-c4cc(NCCO)nc(N5CCOCC5)c4)c3)cc(C(F)(F)F)c2)CC1 [Example 1045, 3-(4-ethylpiperazin-1-yl)-N-(2′-((2-hydroxyethyl)amino)-2-methyl-6′-morpholino-[3,4′-bipyridin]-5-yl)-5-(trifluoromethyl)benzamide]	32.9
Cc1ncc(NC(=O)c2ccnc(C(C)(C)O)c2)cc1-c1cc(NCCO)nc(N2CCOCC2)c1 [Example 1046, N-(2′-((2-hydroxyethyl)amino)-2-methyl-6′-morpholino-[3,4′-bipyridin]-5-yl)-2-(2-hydroxypropan-2-yl)isonicotinamide]	68.4
Cc1ccc(NC(=O)c2cnnc(C(F)(F)F)c2)cc1-c1cc(NCCO)nc(N2CCOCC2)c1 [Example 1047, N-(3-(2-((2-hydroxyethyl)amino)-6-morpholinopyridin-4-yl)-4-methylphenyl)-6-(trifluoromethyl)pyridazine-4-carboxamide]	3.95
Cc1ccc(NC(=O)c2cnnc(C3CC3)c2)cc1-c1cc(NCCO)nc(N2CCOCC2)c1 [Example 1048, 6-cyclopropyl-N-(3-(2-((2-hydroxyethyl)amino)-6-morpholinopyridin-4-yl)-4-methylphenyl)pyridazine-4-carboxamide]	1.55
Cc1ccc(NC(=O)c2cnnc(C(C)(C)C#N)c2)cc1-c1cc(NCCO)nc(N2CCOCC2)c1 [Example 1049, 6-(2-cyanopropan-2-yl)-N-(3-(2-((2-hydroxyethyl)amino)-6-morpholinopyridin-4-yl)-4-methylphenyl)pyridazine-4-carboxamide]	7.69
Cc1ccc(NC(=O)c2ccnc(C3(C#N)CC3)c2)cc1-c1cc(NCCO)nc(N2CCOCC2)c1 [Example 1050, 2-(1-cyanocyclopropyl)-N-(3-(2-((2-hydroxyethyl)amino)-6-morpholinopyridin-4-yl)-4-methylphenyl)isonicotinamide]	1.31
